Counter-ions that a name gives are not always drawn. Like-named read-outs stand apart in the source and are kept apart here.
Biological target: T1, Rat brain protein farnesyltransferase (Rattus norvegicus, UniProt Q02293+Q04631)
T1 construct: The enzyme is purified according to Reiss, Y., et al., Cell, 62: 81-88 (1990), utilizing steps one through three; from tissue; host or cells: rat brain
Assay: In vitro inhibition of protein farnesyltransferase, Amersham scintillation proximity assay with biotin-K Ras B fragment
Format: biochemical
Conditions: for inhibition at 1 µM / % inhibition at 1 × 10^−6 M: compound at 1 × 10^−6 M (Table 2); for inhibition at 1 µM: read-out: % inhibition at 1 × 10^−6 M

[1] = Inhibition of farnesyltransferase
[2] = read-out: % inhibition at 1 × 10^−7 M

CSCC[C@@H](NC(=O)c1ccc(CNc2cccnc2)cc1-c1ccccc1C)C(=O)O (stereo in doubt) [Example 400, [4-(3-Pyridylaminomethyl)-2-(2-methylphenyl)benzoyl]methionine]
inhibition at 0.01 µM (Inhibition of farnesyltransferase, compound at 1 × 10^−8 M (Table 4), read-out: % inhibition at 1 × 10^−8 M): 98%

COc1ccncc1NCc1ccc(C(=O)N[C@@H](CCSC)C(=O)O)c(-c2ccccc2)c1 [Example 281, [4-(4-Methoxypyrid-3-ylaminomethyl)-2-phenylbenzoyl]methionine Sodium Salt]
inhibition at 1 µM [1]: 98%

CSCC[C@H](NC(=O)c1ccc(CN(c2cccnc2)S(=O)(=O)c2ccccc2)cc1-c1ccccc1C)C(=O)O [Example 570, N-[4-N-Phenylsulfonyl-N-pyrid-3-ylaminomethyl-2-(2-methylphenyl)benzoyl]methionine]
inhibition at 0.1 µM (Inhibition of farnesyltransferase, compound at 1 × 10^−7 M (Table 3), read-out: % inhibition at 1 × 10^−7 M): 92%

CSCC[C@H](NC(=O)c1ccc(C=Cc2cnccc2OCc2cc(F)cc(F)c2)cc1-c1ccccc1C)C(=O)O [Example 1363, N-[4-(2-(4-(3,5-Difluorobenzyl)oxypyridin-3-yl)ethenyl)-2-(2-methylphenyl)benzoyl]methionine Sodium Salt]
inhibition at 0.01 µM (Inhibition of farnesyltransferase, compound at 0.01 μM (Table 6, values marked **), read-out: % inhibition at 0.01 μM): 88%

COc1ccncc1C=Cc1ccc(C(=O)N[C@@H](CCSC)C(=O)O)c(-c2ccccc2C)c1 [Example 1361, N-[4-(2-(4-Methoxypyridin-3-yl)ethenyl)-2-(2-methylphenyl)benzoyl]methionine Sodium Salt]
inhibition at 0.1 µM (Inhibition of farnesyltransferase, compound at 0.1 μM (Table 6, values marked *), read-out: % inhibition at 0.1 μM): 96%

COC(=O)[C@H](CCSC)NC(=O)c1ccc(NCc2cccnc2)cc1-c1ccccc1 [Example 201, [4-(3-Pyridylmethylamino)-2-phenylbenzoyl]methionine Methyl Ester]
inhibition at 1 µM [1]: 63%

CC1(C)O[C@H](c2cccnc2)[C@@H](c2ccc(C(=O)N[C@@H](CCS(C)(=O)=O)C(=O)O)c(-c3ccccc3)c2)O1 [Example 222, N-{4-[2,2-Dimethyl-4-(3-pyridyl)-1,3-dioxolan-5-yl-]-2-phenylbenzoyl}-2-amino-4-methanesulfonylbutanoic Acid]
inhibition at 1 µM [1]: 41%

COC(=O)[C@H](CCSC)NC(=O)c1ccc(CNc2cccnc2)cc1-c1ccccc1 [Example 226, [4-(Pyrid-3-ylaminomethyl)-2-phenylbenzoyl]methionine Methyl Ester Hydrochloride]
inhibition at 1 µM [1]: 23%

CCNC(=O)CC[C@H](NC(=O)c1ccc(COc2cccnc2)cc1-c1ccccc1C)C(=O)O [Example 315, (S)-2-N-[4-(3-Pyridyloxymethyl)-2-(2-methylphenyl)benzoyl]amino-4-(N-ethylaminocarbonyl)butanoic Acid]
% inhibition at 1 × 10^−6 M [1]: 93%

CSCC[C@H](NC(=O)c1ccc(COc2cccnc2)cc1-c1cccc(C)c1)C(=O)O [Example 205, [4-(3-Pyridyloxymethyl)-2-(3-methylphenyl)benzoyl]methionine]
inhibition at 1 µM [1]: 98%

COC(=O)[C@H](CCS(C)(=O)=O)NC(=O)c1ccc(CNc2cccnc2)cc1-c1ccccc1 (stereo in doubt) [Example 238, N-[4-(3-Pyridylaminomethyl)-2-phenylbenzoyl]-2-amino-4-(methylsulfonyl)butanoic Acid Methyl Ester]
inhibition at 1 µM [1]: 22%

CSCC[C@H](NC(=O)c1ccc(CNc2ccccn2)cc1-c1ccccc1)C(=O)O [Example 160, [4-(2-Pyridylaminomethyl)-2-phenylbenzoyl]methionine]
inhibition at 1 µM [1]: 30%

COCC[C@H](NC(=O)c1ccc(COc2cccnc2)cc1-c1ccccc1)C(=O)O [Example 245]
inhibition at 1 µM [1]: 50%

Cc1ccccc1-c1cc(CCc2cnc3ccccc3c2)ccc1C(=O)N[C@@H](CC[S+](C)[O-])C(=O)O (stereo in doubt) [Example 490, N-[4-(2-Quinolin-3-ylethyl)-2-(2-methylphenyl)benzoyl]-2-amino-4-methylsulfinylbutanoic Acid Lithium Salt]
inhibition at 0.1 µM [2]: 70%

CSCC[C@H](NC(=O)c1ccc(CSc2cccnc2)cc1-c1ccccc1C)C(=O)O [Example 324]
% inhibition at 1 × 10^−6 M [1]: 98%

CSCC[C@H](NC(=O)c1ccc(/C=C/c2ccc(Oc3ccccc3Cl)nc2)cc1-c1ccccc1C)C(=O)O [Example 802, Lithium Salt]
inhibition at 0.1 µM [2]: 88%

Source: US6693123B2 (University of Pittsburgh, priority 1995, dated 2004)
